Laboratory results taken from US20070134709A1, “Usages of MTHFR gene polymorphisms in predicting homocysteine level, disease risk, and treatment effects and related methods and kit” (priority 2005, published 2007).
Blank lines part the entries; values can stand above or below the molecule they belong to.

Tests used:
hypertensive patients [1] = conditions: oral, single daily fixed dosage of 10 mg; 444 hypertensive patients; cited from earlier work
hypertensive subjects = assay: Change in plasma Hcy level after 57 days' treatment, hypertensive subjects grouped by MTHFR C677T genotype; assay type: in vivo, human; conditions: for Significant change in Hcy (number of subjects): (day 57 − day 0)/day 0 ≧10%; for Non-significant change in Hcy (number of subjects): relative change below 10; for β(SE) of change in Hcy level: multiple linear regression adjusted for sex, age, BMI, smoking, drinking, baseline Hcy; for Mean change in Hcy level: plasma, Day 57 − Day 0
Protocol: We conducted a clinical epidemiology study, in which we classified hypertensive subjects into 677CC, 677CT, and 677TT groups based on the genotypes of MTHFR C677T polymorphism. Each subject was treated with Enalapril alone or combined with folate for 57 consecutive days. Pre-treatment and post-treatment plasma Hcy level, blood pressure (SBP/DBP), and urine albumin were measured. The major findings are summarized as follow. […]

[2] = cited from earlier work
hypertensive patients [3] = assay: Change in plasma Hcy level after 57 days' treatment, hypertensive patients grouped by MTHFR A1298C genotype; assay type: in vivo, human; conditions: for β(SE) of change in Hcy level: adjusted for sex, age, BMI, smoking, drinking, baseline Hcy; for Mean change in Hcy level: plasma, Day 57 − Day 0
Protocol: In our clinical epidemiology study, we classified hypertensive patients into 1298AA, 1298AC, and 1298CC groups based on the genotype of MTHFR A1298C polymorphism. Each subject was treated with ACEI medicine alone or combined with folate for 57 consecutive days. Pre-treatment and post-treatment plasma Hcy level, blood pressure (SBP/DBP), and urine albumin were measured.

subjects = assay: Liver injury as change in liver enzymes (ALT, AST) after 57 days' treatment, subjects grouped by MTHFR C677T genotype; assay type: in vivo, human; conditions: for Significant change in ALT (number of subjects): (ALT day 57-ALT day 0)/ALT day 0>15%
Protocol: In our clinical epidemiology study, we classified subjects into 677CC, 677CT, and 677TT groups based on the MTHFR C677T genotype. Each subject was treated with ENAZEPRIL alone or combined with folate for 57 consecutive days. Pre-treatment and post-treatment liver enzymes (ALT and AST) were measured. The MTHFR C677T polymorphism can affect the degree of liver injury induced by ACEI medicine combined with folate. […] Remarkably, given the combination therapy, Subjects with MTHFR 677CC genotype tend to have greater increase in ALT and AST, but subjects with MTHFR 677TT genotype tend to have less increase in ALT and AST. Subjects with MTHFR 677CT genotype fell in-between.
In our clinical epidemiology study, we classified subjects into 677CC, 677CT, and 677TT groups based on the MTHFR C677T genotype. Each subject was treated with ENAZEPRIL alone or combined with folate for 57 consecutive days. Pre-treatment and post-treatment liver enzymes (ALT and AST) were measured.

[4] = molecular target: angiotensin converting enzyme I (Homo sapiens, UniProt P12821); conditions: cited from earlier work
Sequence of angiotensin converting enzyme I (P12821 30-1306): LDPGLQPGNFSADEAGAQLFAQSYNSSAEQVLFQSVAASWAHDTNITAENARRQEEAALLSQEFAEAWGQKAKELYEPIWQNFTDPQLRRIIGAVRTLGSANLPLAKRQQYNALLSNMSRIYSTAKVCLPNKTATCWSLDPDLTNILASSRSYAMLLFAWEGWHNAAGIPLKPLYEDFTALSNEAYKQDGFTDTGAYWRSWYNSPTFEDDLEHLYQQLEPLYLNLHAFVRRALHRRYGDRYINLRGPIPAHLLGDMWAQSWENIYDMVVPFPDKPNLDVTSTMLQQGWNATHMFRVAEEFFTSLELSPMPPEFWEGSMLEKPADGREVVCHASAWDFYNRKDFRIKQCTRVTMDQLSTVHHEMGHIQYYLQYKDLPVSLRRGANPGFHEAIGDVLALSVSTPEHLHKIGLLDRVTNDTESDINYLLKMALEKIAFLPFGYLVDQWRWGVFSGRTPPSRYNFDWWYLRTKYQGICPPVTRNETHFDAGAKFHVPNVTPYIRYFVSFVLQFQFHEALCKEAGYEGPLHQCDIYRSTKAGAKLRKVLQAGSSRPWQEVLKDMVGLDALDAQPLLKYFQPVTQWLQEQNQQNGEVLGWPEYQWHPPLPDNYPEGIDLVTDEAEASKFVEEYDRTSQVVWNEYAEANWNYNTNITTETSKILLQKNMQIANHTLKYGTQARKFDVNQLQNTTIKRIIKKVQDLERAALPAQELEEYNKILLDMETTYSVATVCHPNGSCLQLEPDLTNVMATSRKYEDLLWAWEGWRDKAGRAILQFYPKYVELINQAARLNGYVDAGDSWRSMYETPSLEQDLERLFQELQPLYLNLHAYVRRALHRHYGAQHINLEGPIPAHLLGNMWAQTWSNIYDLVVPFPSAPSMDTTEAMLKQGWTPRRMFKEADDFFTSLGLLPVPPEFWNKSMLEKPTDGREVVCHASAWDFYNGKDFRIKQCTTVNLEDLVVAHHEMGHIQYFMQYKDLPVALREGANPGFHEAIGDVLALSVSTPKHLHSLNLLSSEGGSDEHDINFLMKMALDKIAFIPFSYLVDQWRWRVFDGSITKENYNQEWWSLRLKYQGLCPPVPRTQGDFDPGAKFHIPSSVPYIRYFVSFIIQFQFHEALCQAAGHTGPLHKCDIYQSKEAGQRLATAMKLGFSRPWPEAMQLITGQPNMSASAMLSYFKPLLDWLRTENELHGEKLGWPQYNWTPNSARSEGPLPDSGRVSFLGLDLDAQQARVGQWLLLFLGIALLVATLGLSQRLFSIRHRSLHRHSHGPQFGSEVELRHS

[5] = Table 19, 677CC, day 57 minus day 0
[6] = Table 19, 677CT, day 57 minus day 0
[7] = Table 19, 677TT, day 57 minus day 0

Structure (SMILES): CCOC(=O)[C@H](CCc1ccccc1)N[C@H]1CCc2ccccc2N(CC(=O)O)C1=O [Benazepril]
Change in diastolic blood pressure, TT genotype vs CT or CC genotype (hypertensive patients [1]): significantly higher

Significant change in Hcy (number of subjects) (hypertensive subjects; 677CC + CT): 12
Non-significant change in Hcy (number of subjects) (hypertensive subjects; 677CC + CT): 39
Subjects with significant change in Hcy level (hypertensive subjects; 677CT or CC): 23.3%
β(SE) of change in Hcy level (hypertensive subjects; 677CT vs 677CC): 0.7 (1.3)
Subjects with significant change in Hcy level (hypertensive subjects; 677TT genotype): 38.5%
β(SE) of change in Hcy level (hypertensive subjects; 677TT vs 677CC): 3.9 (1.3)
Significant change in Hcy (number of subjects) (hypertensive subjects; 677TT): 10
Non-significant change in Hcy (number of subjects) (hypertensive subjects; 677TT): 16
Plasma Hcy level after treatment (hypertensive subjects; Enalapril alone for 57 days): increased level of plasma Hcy
Mean change in Hcy level (hypertensive subjects; MTHFR 677CC): -0.5 µmol/L
Mean change in Hcy level (hypertensive subjects; MTHFR 677CT): 1.2 µmol/L
Mean change in Hcy level (hypertensive subjects; MTHFR 677TT): 2.7 µmol/L
Significant change in Hcy (number of subjects) (hypertensive subjects; Total, all genotypes): 22
Non-significant change in Hcy (number of subjects) (hypertensive subjects; Total, all genotypes): 55
Subjects with significant change in Hcy level (hypertensive subjects; overall (22/77)): 28.6%
Structure (SMILES): CCOC(=O)[C@H](CCc1ccccc1)N[C@@H](C)C(=O)N1CCC[C@H]1C(=O)O [ENALAPRIL, Enalapril]
Half-time ([2]; in vivo): 11 h
Duration of blood pressure lowering effect ([2]; regular dosage): more than 24 hours

β(SE) of change in Hcy level (hypertensive patients [3]; 1298AA vs 1298CC): 2.3 (1.8)
β(SE) of change in Hcy level (hypertensive patients [3]; 1298AC vs 1298CC): 0.2 (1.5)
Mean change in Hcy level (hypertensive patients [3]; MTHFR 1298AA): 3.0 µmol/L
Mean change in Hcy level (hypertensive patients [3]; MTHFR 1298AC): 1.2 µmol/L
Mean change in Hcy level (hypertensive patients [3]; MTHFR 1298CC): 1.1 µmol/L
Structure (SMILES): CCOC(=O)[C@H](CCc1ccccc1)N[C@@H](C)C(=O)N1CCC[C@H]1C(=O)O [ENAZEPRIL]
Plasma Hcy level after treatment (hypertensive patients [3]; ENAZEPRIL alone for 57 days): significantly increased level of plasma Hcy
Insignificant change in ALT (number of subjects) (subjects; 677CC): 20
Significant change in ALT (number of subjects) (subjects; 677CC): 32
Insignificant change in ALT (number of subjects) (subjects; 677TT): 34
Significant change in ALT (number of subjects) (subjects; 677TT): 14
Mean change in ALT (subjects; [5]): 13.8 U/L
Mean change in AST (subjects; [5]): 7.1 U/L
Mean change in ALT (subjects; [6]): 10.1 U/L
Mean change in AST (subjects; [6]): 5.2 U/L
Mean change in ALT (subjects; [7]): 7.3 U/L
Mean change in AST (subjects; [7]): 0.3 U/L
Mean change in ALT (subjects; Table 20, 677CC, Day57 − Day0): 17.92 U/L
Mean change in AST (subjects; Table 20, 677CC, Day57 − Day0): 4.95 U/L
Mean change in ALT (subjects; Table 20, 677CT, Day57 − Day0): 10.15 U/L
Mean change in AST (subjects; Table 20, 677CT, Day57 − Day0): 5.81 U/L
Mean change in ALT (subjects; Table 20, 677TT, Day57 − Day0): 9.4 U/L
Mean change in AST (subjects; Table 20, 677TT, Day57 − Day0): 0.08 U/L
Insignificant change in ALT (number of subjects) (subjects; Total (CC and TT)): 54
Significant change in ALT (number of subjects) (subjects; Total (CC and TT)): 46
Increase in ALT and AST (subjects; subjects with MTHFR 677CC genotype, Enazepril alone): greatest increase in ALT and AST

Structure (SMILES): C[C@H](N[C@@H](CCc1ccccc1)C(=O)O)C(=O)N1CCC[C@H]1C(=O)O [Enalaprilat]
Inhibition of angiotensin converting enzyme I compared with enalapril [4]: powerful effect on inhibiting angiotensin converting enzyme I than enalapril
